According to US6576656B1, “Oxindole derivative” (Sumitomo Pharmaceuticals Co., Ltd., priority 1998, dated 2003):
Like-named read-outs stand apart in the source and are kept apart here.

Legend:
[1] = increase in the weight of rats after oral administration for 9 days; assay type: in vivo, rat; conditions: 10 mg/kg/day×2 orally for 9 days, 11-week-old F 344/N rats (6/group); p<0.01; distilled water group 13.5±2.3 g
Experimental: The compound of Example 74 (10 mg/kg/day×2) were administered orally to 11-week-old F 344/N rats (6/group) for 9 days and increase in the weight of each rat was measured.

rat pituitary cells = experiment: growth hormone releasing activity from rat pituitary cells in vitro (GH measured by RIA); assay type: cell-based; conditions: read-out: EC50 (GH releasing efficacy)
Experimental: Compounds of the present invention were evaluated for their growth hormone releasing activity from rat pituitary cells in vitro in accordance with the method described in the literature (R. G. Smith et al., Science, 260, 1640 (1993)). Pituitary glands removed from 7-week-old Wistar/ST male rats were washed with HBSS (Hank's balanced salt solution) three times and minced into small pieces (ca. 1 mm^2) using a pair of scissors. […] An enzyme solution (0.1 mL per a pituitary gland) was added and the cell dispersion was carried out in a water bath at 37° C. for ca 20-30 min, during which time the digested mixture was mixed by successive up-take and down-take of the suspension using a pipette, every 5 minutes. The resulting cell suspension was centrifuged at 1200 rpm for 2-3 min at room temperature and the supernatant fluid was discarded. A cultured medium was added and the resulting cell suspension was again centrifuged at 1200 rpm for 2-3 min at room temperature and the supernatant fluid was discarded. This procedure was repeated another 2 times. […] The culture medium was discarded and an assay medium (0.1 mL) was added. The incubation was continued for 1.5 h and the cells were washed with the assay medium. […] The supernatant fluid was recovered and the GH content present was measured by RIA (radioimmunoassay). An aliquot of the solution was diluted to 0.05 mL with a RIA buffer which consisted of PBS (pH 7.3) containing 1% BSA, 0.1% NaN3 and 25 mM EDTA. […] Cell membrane fractions containing protein A were added and the mixture was allowed to stand for 20 min and centrifuged. The supernatant fluid was removed and the precipitates were washed with the RIA buffer. The ^125I content in the precipitates was measured. The GH concentration in the sample was calculated from the standard curve made by using the standard GH sample. The EC50 values of the test compounds were determined using recurrent calculation from the following equation, where X is the concentration of the test compound, Y is the GH concentration at the given assay, and B is the EC50 value. C means recurrently calculated GH concentration in the absence of the test compound and A+C means recurrently calculated GH concentration when a maximum amount of the test compound is present. […] The culture medium used here consisted of DMEM (Dulbecco's Modified Eagle's Medium) containing 10% horse serum, 2.5% fetal bovine serum, 1% nonessential amino acids, 0.01% streptomycin and penicillin (100 IU/mL). The cultured medium described above was adjusted to pH 7.3 by adding a 25 mM HEPES buffer and the resulting solution was used as the assay medium. […] The resulting mixture was used as the test compound solution. […]

In the case of CCN(CC)CCN1C(=O)C(O)(c2ccccc2Cl)c2c1cc(C(N)=O)cc2C(F)(F)F (single isomer, unassigned; (+)) [Example 74, (+)-1-(2-Diethylaminoethyl)-4-trifluoromethyl-6-carbamoyl-3-hydroxy-3-(2-chlorophenyl)oxindole], the “increase in the weight” value [1] is reported as 19.5 ± 2.1 g and the EC50 (rat pituitary cells; Rattus norvegicus, 0.25 h) is reported as 0.5 nM.

For CCN(CC)CCN1C(=O)C(O)(c2ccccc2F)c2c(Br)cccc21 (centres unmarked) [Example 21, 4-Bromo-1-(2-diethylaminoethyl)-3-hydroxy-3-(2-fluorophenyl)oxindole], the EC50 (rat pituitary cells; Rattus norvegicus, 0.25 h) was 4 nM.

Compound CCN(CC)CCN1C(=O)C(O)(c2ccccc2Cl)c2c1cc(C#CCCC(=O)N1CCOCC1)cc2C(F)(F)F (centres unmarked) [Example 70, 1-(2-Diethylaminoethyl)-4-trifluoromethyl-6-(4-morpholinocarbonyl-1-butynyl)-3-hydroxy-3-(2-chlorophenyl)oxindole] has an EC50 (rat pituitary cells; Rattus norvegicus, 0.25 h) of 5 nM.

Compound CCN(CC)CCN1C(=O)C(O)(c2ccc(Cl)cc2Cl)c2c1cc(C(N)=O)cc2C(F)(F)F (centres unmarked) [Example 91, 1-(2-Diethylaminoethyl)-4-trifuoromethyl-6-carbamoyl-3-hydroxy-3-(2,4-dichlorophenyl)oxindole] has an EC50 (rat pituitary cells; cultured pituitary cells of 7-week-old Wistar/ST male rats, 15 min at 37° C., GH by RIA) of 1.2 nM.
